These results are taken from patent US10556907B2 (AbbVie Inc., priority 2015, dated 2020).

Molecules are shown by their SMILES. Counter-ions that a name gives are not always drawn. Bounds are passed on as bounds.

Assay in all cases: Method 1: intracellular Ca2+ release (FLIPR, Calcium 5) in recombinant CHO-K1 cells
Holding throughout (format): cell-based

For one experiment, the target named is T1, human S1PR5 receptor (Homo sapiens, UniProt Q9H228).
T1 construct: host or cells: CHO-K1
The conditions noted are these: agonist potency, determined with method 1 (symbols A-D); read-out: S1P5 EC50 range. The method in brief: (§1)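 Read-out: FLIPR Tetra fluorescence of Calcium 5-loaded CHO-K1 cells (receptor + aequorin + Gq/i5) after agonist addition at RT. Values are EC50s from nonlinear fits normalized to the phospho-fingolimod reference curve. Buffer HBSS with Ca2+/Mg2+, Hepes, probenecid, 0.1% BSA, pH 7.4.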

For the next experiment, the target named is T2, human S1PR1 receptor (Homo sapiens, UniProt P21453).
T2 construct: host or cells: CHO-K1
T2 sequence (P21453 whole entry): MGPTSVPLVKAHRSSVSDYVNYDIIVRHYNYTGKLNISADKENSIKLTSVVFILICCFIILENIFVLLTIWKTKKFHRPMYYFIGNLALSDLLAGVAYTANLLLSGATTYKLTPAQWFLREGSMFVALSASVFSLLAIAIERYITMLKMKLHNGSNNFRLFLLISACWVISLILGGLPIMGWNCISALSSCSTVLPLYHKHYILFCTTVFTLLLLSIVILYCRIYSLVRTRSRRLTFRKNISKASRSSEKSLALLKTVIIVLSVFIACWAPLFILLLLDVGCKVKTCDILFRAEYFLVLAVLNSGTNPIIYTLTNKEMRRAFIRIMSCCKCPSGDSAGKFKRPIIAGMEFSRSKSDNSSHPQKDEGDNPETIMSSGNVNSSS
The conditions noted are these: (1): determined with method 1; read-out: S1P1 EC50. The method in brief:
as §1

The next experiment addresses T3, human S1PR4 receptor (Homo sapiens, UniProt O95977).
T3 construct: host or cells: CHO-K1
T3 sequence (O95977 1-384): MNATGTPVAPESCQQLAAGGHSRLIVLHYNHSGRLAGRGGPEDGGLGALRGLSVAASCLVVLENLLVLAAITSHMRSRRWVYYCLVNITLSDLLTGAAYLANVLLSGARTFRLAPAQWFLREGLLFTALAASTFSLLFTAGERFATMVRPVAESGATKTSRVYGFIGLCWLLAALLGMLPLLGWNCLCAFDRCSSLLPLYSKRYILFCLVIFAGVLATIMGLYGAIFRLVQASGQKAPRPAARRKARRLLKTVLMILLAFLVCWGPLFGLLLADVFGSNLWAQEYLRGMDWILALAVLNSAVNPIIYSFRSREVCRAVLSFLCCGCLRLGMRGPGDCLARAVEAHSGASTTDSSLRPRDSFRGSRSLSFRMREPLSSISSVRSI
The conditions noted are these: (1): determined with method 1; read-out: S1P4 EC50. The method in brief:
as §1

A further experiment addresses T4, human S1PR3 receptor (Homo sapiens, UniProt Q99500).
T4 construct: host or cells: CHO-K1
As to conditions: (1): determined with method 1; read-out: S1P3 EC50. The method in brief:
as §1

T1 sequence (Q9H228 whole entry): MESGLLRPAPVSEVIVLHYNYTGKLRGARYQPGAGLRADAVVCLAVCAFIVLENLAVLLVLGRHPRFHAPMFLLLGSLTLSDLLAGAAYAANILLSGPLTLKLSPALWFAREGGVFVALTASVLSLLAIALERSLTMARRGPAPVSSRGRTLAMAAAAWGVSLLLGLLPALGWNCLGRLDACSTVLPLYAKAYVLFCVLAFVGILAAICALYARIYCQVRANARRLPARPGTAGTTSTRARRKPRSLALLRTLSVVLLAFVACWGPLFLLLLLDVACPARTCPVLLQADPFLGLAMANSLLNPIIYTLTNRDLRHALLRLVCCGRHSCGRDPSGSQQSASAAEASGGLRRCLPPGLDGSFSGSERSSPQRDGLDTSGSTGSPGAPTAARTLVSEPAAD
T4 sequence (Q99500 whole entry): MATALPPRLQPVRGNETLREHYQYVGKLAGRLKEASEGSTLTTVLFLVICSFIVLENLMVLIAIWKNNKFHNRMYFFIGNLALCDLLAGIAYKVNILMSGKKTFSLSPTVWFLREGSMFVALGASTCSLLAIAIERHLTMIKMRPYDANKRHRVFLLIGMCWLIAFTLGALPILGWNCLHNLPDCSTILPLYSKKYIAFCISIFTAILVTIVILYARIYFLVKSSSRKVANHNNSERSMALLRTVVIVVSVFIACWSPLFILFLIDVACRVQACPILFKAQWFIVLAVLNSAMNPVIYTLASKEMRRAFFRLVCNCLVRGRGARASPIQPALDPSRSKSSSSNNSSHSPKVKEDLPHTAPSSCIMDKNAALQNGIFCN

For `CCc1ccccc1COc1ccc(-c2ncc3c(n2)CCN(CC(C)CC(=O)O)C3)c(F)c1` (stereo not drawn) [Compound 296, 4-[2-[4-[(2-ethylphenyl)methoxy]-2-fluoro-phenyl]-7,8-dihydro-5H-pyrido[4,3-d]pyrimidin-6-yl]-3-methyl-butanoic acid 2,2,2-trifluoroacetic acid salt], the EC50 (as a rule, the concentration needed to bring the measured effect to its halfway point) is 0.1 to 1 µM on human S1PR5 receptor, > 1 µM on human S1PR1 receptor and > 1 µM at human S1PR4 receptor.

Turning to `CC(C(=O)O)N1CCc2nc(-c3ccc(OCc4cccc(Cl)c4)cc3)ncc2C1` (stereo not drawn) [Compound 317, 2-(2-(4-((3-chlorobenzyl)oxy)phenyl)-7,8-dihydropyrido[4,3-d]pyrimidin-6(5H)-yl)propanoic acid], the EC50 at human S1PR5 receptor is 0.1 to 1 µM; on human S1PR1 receptor, > 1 µM; on human S1PR4 receptor, > 1 µM.

In the case of `CC(C)(CC(=O)O)CN1CCc2nc(-c3ccc(OCc4cccc(Cl)c4)cc3)cnc2C1` [Compound 211, 4-(2-(4-((3-chlorobenzyl)oxy)phenyl)-7,8-dihydropyrido[3,4-b]pyrazin-6(5H)-yl)-3,3-dimethylbutanoic acid], the concentration for a half-maximal effect (EC50) is 1 to 10 µM on human S1PR5 receptor, > 1 µM at human S1PR1 receptor and > 1 µM at human S1PR4 receptor.

As for `O=C(O)CCN1Cc2ccc(-c3cccc(OCc4cccc(F)c4)c3)nc2C1` [Compound 203, 3-(2-(3-((3-fluorobenzyl)oxy)phenyl)-5H-pyrrolo[3,4-b]pyridin-6(7H)-yl)propanoic acid], the EC50 at human S1PR5 receptor was 1 to 10 µM; on human S1PR1 receptor, > 1 µM; at human S1PR3 receptor it was > 1 µM.

`CC(CN1CCc2nc(-c3ccc(OCc4cccc(F)c4F)cc3)ncc2C1)C(=O)O` (stereo not drawn) [Compound 16, 3-(2-(4-((2,3-difluorobenzyl)oxy)phenyl)-7,8-dihydropyrido[4,3-d]pyrimidin-6(5H)-yl)-2-methylpropanoic acid]: the half-maximal effective concentration (EC50) was < 0.01 µM at human S1PR5 receptor, < 1 µM at human S1PR1 receptor and > 1 µM on human S1PR3 receptor.

Regarding `CC(CN1CCc2nc(-c3ccc(OCc4ccccc4)cc3F)ccc2C1)C(=O)O` (stereo not drawn) [Compound 102, 3-(2-(4-(benzyloxy)-2-fluorophenyl)-7,8-dihydro-1,6-naphthyridin-6(5H)-yl)-2-methylpropanoic acid], the figures for the EC50 at human S1PR5 receptor, at human S1PR1 receptor and at human S1PR3 receptor were 0.01 to 0.1 µM, < 1 µM and > 1 µM, respectively.

For the molecule `O=C(O)CCN1CCc2nc(-c3ccc(OCc4cccc(OC(F)F)c4)cc3)ncc2C1` [Compound 92, 3-(2-(4-((3-(difluoromethoxy)benzyl)oxy)phenyl)-7,8-dihydropyrido[4,3-d]pyrimidin-6(5H)-yl)propanoic acid], the concentration for a half-maximal effect (EC50) at human S1PR5 receptor was 0.01 to 0.1 µM; at human S1PR1 receptor, > 1 µM; on human S1PR3 receptor it was > 1 µM.

Take `CC(C)Oc1ccc(-c2ncc3c(n2)CCN(CCCC(=O)O)C3)cc1` [Compound 46, 4-(2-(4-isopropoxyphenyl)-7,8-dihydropyrido[4,3-d]pyrimidin-6(5H)-yl)butanoic acid]: the EC50 was 1 to 10 µM at human S1PR5 receptor, > 1 µM at human S1PR1 receptor and > 1 µM on human S1PR3 receptor.

For `O=C(O)CCN1CCc2nc(-c3ccc(OCc4ccc(F)c(F)c4)cc3)ncc2C1` [Compound 71, 3-(2-(4-((3,4-difluorobenzyl)oxy)phenyl)-7,8-dihydropyrido[4,3-d]pyrimidin-6(5H)-yl)propanoic acid], the EC50 at human S1PR5 receptor is < 0.01 µM; at human S1PR1 receptor, > 1 µM; at human S1PR3 receptor it was > 1 µM.

Consider `Cc1cccc(C)c1COc1ccc(-c2ncc3c(n2)CCN(CC(C)C(=O)O)C3)cc1` (stereo not drawn) [Compound 15, 3-(2-(4-((2,6-dimethylbenzyl)oxy)phenyl)-7,8-dihydropyrido[4,3-d]pyrimidin-6(5H)-yl)-2-methylpropanoic acid], for which the values for the concentration giving a half-maximal response (EC50) at human S1PR5 receptor, at human S1PR1 receptor and on human S1PR3 receptor were < 0.01 µM, < 1 µM and > 1 µM, respectively.

For the molecule `CC(CC(=O)O)N1CCc2nc(-c3ccc(OCc4ccc(F)c(F)c4)cc3)ncc2C1` (stereo not drawn) [Compound 42, 3-(2-(4-((3,4-difluorobenzyl)oxy)phenyl)-7,8-dihydropyrido[4,3-d]pyrimidin-6(5H)-yl)butanoic acid], the half-maximal effective concentration (EC50) at human S1PR5 receptor was < 0.01 µM; on human S1PR1 receptor it was > 1 µM; on human S1PR3 receptor, > 1 µM.

As for `O=C(O)CCN1CCc2nc(-c3ccc(OCc4ccc(C(F)F)cc4)cc3)ncc2C1` [Compound 77, 3-(2-(4-((4-difluoromethylbenzyl)oxy)phenyl)-7,8-dihydropyrido[4,3-d]pyrimidin-6(5H)-yl)propanoic acid], the EC50 at human S1PR5 receptor is < 0.01 µM; on human S1PR1 receptor, > 1 µM; on human S1PR3 receptor it was > 1 µM.

In the case of `CC(CC(=O)O)N1CCc2nc(-c3ccc(OCc4cccc(Cl)c4)cc3)ncc2C1` (stereo not drawn) [Compound 43, 3-(2-(4-((3-chlorobenzyl)oxy)phenyl)-7,8-dihydropyrido[4,3-d]pyrimidin-6(5H)-yl)butanoic acid], the EC50 on human S1PR5 receptor is 0.1 to 1 µM; on human S1PR1 receptor it was > 1 µM; on human S1PR3 receptor, > 1 µM.

In the case of `O=C(O)CCN1CCc2nc(-c3ccc(OCc4ccc(OC(F)(F)F)cc4)cc3)ccc2C1` [Compound 153, 3-(2-(4-((4-trifluoromethoxybenzyl)oxy)phenyl)-7,8-dihydro-1,6-naphthyridin-6(5H)-yl)propanoic acid], the EC50 at human S1PR5 receptor was 0.1 to 1 µM; at human S1PR1 receptor, > 1 µM; at human S1PR3 receptor it was > 1 µM.

As for `CC(CC(=O)O)N1CCc2nc(-c3ccc(OCc4ccccc4)cc3)ncc2C1` (stereo not drawn) [Compound 36, 3-(2-(4-(benzyloxy)phenyl)-7,8-dihydropyrido[4,3-d]pyrimidin-6(5H)-yl)butanoic acid], the EC50 at human S1PR5 receptor was 0.1 to 1 µM; on human S1PR1 receptor it was > 1 µM; at human S1PR3 receptor, > 1 µM.

With `O=C(O)CCN1CCc2nc(-c3ccc(OCc4ccc(C(F)(F)F)cc4)cc3)ccc2C1` [Compound 152, 3-(2-(4-((4-trifluoromethylbenzyl)oxy)phenyl)-7,8-dihydro-1,6-naphthyridin-6(5H)-yl)propanoic acid], the concentration giving a half-maximal response (EC50) is < 0.01 µM at human S1PR5 receptor, > 1 µM on human S1PR1 receptor and > 1 µM at human S1PR3 receptor.

Turning to `O=C(O)CCN1CCc2ncc(-c3ccc(OCc4ccc(Cl)cc4)cc3)nc2C1` [Compound 223, 3-(3-(4-((4-chlorobenzyl)oxy)phenyl)-7,8-dihydropyrido[3,4-b]pyrazin-6(5H)-yl)propanoic acid], the results for the EC50 on human S1PR5 receptor, at human S1PR1 receptor and on human S1PR3 receptor were 1 to 10 µM, > 1 µM and > 1 µM, respectively.

As to `CC(CN1CCc2nc(-c3ccc(OCc4ccc(F)cc4)c(Cl)c3)ccc2C1)C(=O)O` (stereo not drawn) [Compound 104, 3-(2-(4-((4-fluorobenzyl)oxy)-3-chlorophenyl)-7,8-dihydro-1,6-naphthyridin-6(5H)-yl)-2-methylpropanoic acid], the EC50 was 0.01 to 0.1 µM on human S1PR5 receptor, > 1 µM at human S1PR1 receptor and > 1 µM at human S1PR3 receptor.

As to `O=C(O)CCN1CCc2nc(-c3ccc(OCc4ccc(C(F)(F)F)cc4)cc3)c(F)cc2C1` [Compound 191, 3-(2-(4-((4-trifluoromethylbenzyl)oxy)phenyl)-3-fluoro-7,8-dihydro-1,6-naphthyridin-6(5H)-yl)propanoic acid], the EC50 at human S1PR5 receptor was < 0.01 µM; on human S1PR1 receptor, < 1 µM; on human S1PR3 receptor, > 1 µM.
